Data as given in patent publication US20130303532A1, “IMIDAZOPYRAZINES FOR USE AS MPS-1 AND TKK INHIBITORS IN THE TREATMENT HYPERPROLIFERATIVE DISORDERS” (BAYER INTELLECTUAL PROPERTY GmbH, priority 2010, published 2013).
Where two headings read alike, the source gives them in different places.

Biological target: T1, human kinase Mps-1 (Homo sapiens, UniProt P33981)
T1 construct: N-terminally GST-tagged human full length recombinant Mps-1 kinase; GST (N); purchased Invitrogen, Karslruhe, Germany PV4071
T1 sequence (P33981 1-857): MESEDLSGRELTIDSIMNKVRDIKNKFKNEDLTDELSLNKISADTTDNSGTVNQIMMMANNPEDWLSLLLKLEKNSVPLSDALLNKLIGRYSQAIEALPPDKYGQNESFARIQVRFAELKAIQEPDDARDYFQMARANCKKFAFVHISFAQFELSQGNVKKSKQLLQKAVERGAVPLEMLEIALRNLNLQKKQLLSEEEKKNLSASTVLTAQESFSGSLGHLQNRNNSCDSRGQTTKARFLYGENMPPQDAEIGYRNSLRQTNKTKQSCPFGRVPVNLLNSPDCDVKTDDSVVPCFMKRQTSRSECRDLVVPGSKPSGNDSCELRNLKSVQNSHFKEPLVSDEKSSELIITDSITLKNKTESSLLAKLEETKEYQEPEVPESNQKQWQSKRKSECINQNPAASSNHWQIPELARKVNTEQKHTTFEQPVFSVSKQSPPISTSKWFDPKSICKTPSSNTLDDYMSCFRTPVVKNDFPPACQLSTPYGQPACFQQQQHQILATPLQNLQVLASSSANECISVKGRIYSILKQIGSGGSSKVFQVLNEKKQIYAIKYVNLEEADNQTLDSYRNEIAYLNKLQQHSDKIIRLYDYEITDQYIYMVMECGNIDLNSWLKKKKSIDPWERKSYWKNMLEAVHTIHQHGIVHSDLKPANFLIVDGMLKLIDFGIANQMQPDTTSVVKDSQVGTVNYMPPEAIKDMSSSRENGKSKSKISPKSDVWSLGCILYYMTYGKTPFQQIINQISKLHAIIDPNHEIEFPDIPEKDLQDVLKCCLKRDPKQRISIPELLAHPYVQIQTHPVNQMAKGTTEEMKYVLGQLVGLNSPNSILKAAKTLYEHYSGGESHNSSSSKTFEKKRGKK
Experiment: Mps-1 kinase assay (TR-FRET)
Type: biochemical
Details: N-terminally GST-tagged human full length recombinant Mps-1, 10 μM ATP, 1 μM biotinylated peptide substrate, 60 min at 22° C.

| IC50 (read-out: Mps1 IC50) [nM] | Compound | IC50 (Mps1 IC50 [nM]) [nM] |
| --- | --- | --- |
| 52.4 | Cc1cc(C(=O)NC2CC2)ccc1-c1cnc2c(NCC(C)C)nccn12 [Example 1-1, N-cyclopropyl-3-methyl-4-{8-[(2-methylpropyl)amino]imidazo[1,2-a]pyrazin-3-yl}benzamide] | – |
| – | Cc1cc(-c2cnc3c(NCC(C)C)nccn23)cc(C)c1C(=O)NC1CC1 [Example 1-2, N-cyclopropyl-2,6-dimethyl-4-{8-[(2-methylpropyl)amino]imi-dazo[1,2-a]pyrazin-3-yl}benzamide] | 1230 |
| – | CC(C)CNc1nccn2c(-c3ccc(C(=O)NC4CC4)cc3F)cnc12 [Example 1-3, N-cyclopropyl-3-fluoro-4-{8-[(2-methylpropyl)amino]imi-dazo[1,2-a]pyrazin-3-yl}benzamide] | 9 |
| – | CC(C)CNc1nccn2c(-c3ccc(C(=O)NC4CC4)c(F)c3)cnc12 [Example 1-4, N-cyclopropyl-2-fluoro-4-{8-[(2-methylpropyl)amino]imi-dazo[1,2-a]pyrazin-3-yl}benzamide] | 34 |
| 54.5 | O=C(NC1CC1)c1ccc(-c2cnc3c(NCCCO)nccn23)cc1 [Example 3-1, N-cyclopropyl-4-[8-[(3-hydroxypropyl)amino]imidazo[1,2-a]pyrazin-3-yl]benzamide] | – |
| 92.7 | CC(C)(O)CNc1nccn2c(-c3ccc(C(=O)NC4CC4)cc3)cnc12 [Example 3-2, N-cyclopropyl-4-{8-[(2-hydroxy-2-methylpropyl)amino]imidazo[1,2-a]pyrazin-3-yl}benzamide] | – |
| 2500 | NCCCNc1nccn2c(-c3ccc(C(=O)NC4CC4)c(Cl)c3)cnc12 [Example 3-3, 4-{8-[(3-Aminopropyl)amino]imidazo[1,2-a]pyrazin-3-yl}-2-chloro-N-cyclopropylbenzamide] | – |
| 421 | COc1cc(C(=O)NC2CC2)ccc1-c1cnc2c(NCCCN)nccn12 [Example 3-4, 4-{8-[(3-Aminopropyl)amino]imidazo[1,2-a]pyrazin-3-yl}-N-cyclopropyl-3-methoxybenzamide] | – |
| 17.2 | CS(=O)(=O)CCNc1nccn2c(-c3ccc(C(=O)NC4CC4)cc3)cnc12 [Example 4-1, N-cyclopropyl-4-(8-{[2-(methylsulfonyl)ethyl]amino}imidazo[1,2-a]pyrazin-3-yl)benzamide] | – |
| 87.4 | CS(=O)(=O)CCCNc1nccn2c(-c3ccc(C(=O)NC4CC4)cc3)cnc12 [Example 4-2, N-cyclopropyl-4-(8-{[3-(methylsulfonyl)propyl]amino}imidazo[1,2-a]pyrazin-3-yl)benzamide] | – |
| – | O=C(NC1CC1)c1ccc(-c2cnc3c(NCc4ccccc4F)nccn23)cc1 [Example 4-3, N-cyclopropyl-4-{8-[(2-fluorobenzyl)amino]imi-dazo[1,2-a]pyrazin-3-yl}benzamide] | 11 |
| – | O=C(NC1CC1)c1ccc(-c2cnc3c(NCc4ccn[nH]4)nccn23)cc1 [Example 4-4, N-cyclopropyl-4-{8-[(1H-pyrazol-5-ylmethyl)amino]imi-dazo[1,2-a]pyrazin-3-yl}benzamide] | 69.8 |
| 103 | COC(=O)CCCNc1nccn2c(-c3ccc(C(=O)NC4CC4)cc3)cnc12 [Example 4-5, methyl 4-({3-[4-(cyclopropylcarbamoyl)phen-yl]imidazo[1,2-a]pyrazin-8-yl}amino)butanoate] | – |
| 74.9 | COC(=O)CCNc1nccn2c(-c3ccc(C(=O)NC4CC4)cc3)cnc12 [Example 4-6, methyl N-{3-[4-(cyclopropylcarbamoyl)phen-yl]imidazo[1,2-a]pyrazin-8-yl}-beta-alaninate] | – |
| 37.2 | CCCCNc1nccn2c(-c3ccc(C(=O)NC4CC4)cc3)cnc12 [Example 4-7, 4-[8-(butylamino)imidazo[1,2-a]pyrazin-3-yl]-N-cyclopropylbenzamide] | – |
| – | COc1ccccc1CNc1nccn2c(-c3ccc(C(=O)NC4CC4)cc3)cnc12 [Example 4-8, N-cyclopropyl-4-{8-[(2-methoxybenzyl)amino]imi-dazo[1,2-a]pyrazin-3-yl}benzamide] | 85.5 |

| IC50 (read-out: Mps1 IC50) [nM] | Compound | IC50 (Mps1 IC50 [nM]) [nM] |
| --- | --- | --- |
| 278 | Cc1cc(-c2cnc3c(NCCCS(C)(=O)=O)nccn23)ccc1C(=O)NC1CC1 [Example 5-1, N-cyclopropyl-2-methyl-4-(8-{[3-(methylsulfonyl)propyl]amino}imidazo[1,2-a]pyrazin-3-yl)benzamide] | – |
| – | Cc1cc(-c2cnc3c(NCc4ccccc4O)nccn23)ccc1C(=O)NC1CC1 [Example 5-2, N-cyclopropyl-4-{8-[(2-hydroxybenzyl)amino]imi-dazo[1,2-a]pyrazin-3-yl}-2-methylbenzamide] | 24.4 |
| – | Cc1cc(-c2cnc3c(NCc4ccn[nH]4)nccn23)ccc1C(=O)NC1CC1 [Example 5-3, N-cyclopropyl-2-methyl-4-{8-[(1H-pyrazol-5-ylmethyl)amino]imi-dazo[1,2-a]pyrazin-3-yl}benzamide] | 86.7 |
| – | Cc1cc(-c2cnc3c(NCc4ccccc4Cl)nccn23)ccc1C(=O)NC1CC1 [Example 5-4, 4-{8-[(2-chlorobenzyl)amino]imi-dazo[1,2-a]pyrazin-3-yl}-N-cyclopropyl-2-methylbenzamide] | 18.8 |
| – | Cc1cc(-c2cnc3c(NCc4ccnn4C)nccn23)ccc1C(=O)NC1CC1 [Example 5-5, N-cyclopropyl-2-methyl-4-(8-{[(1-methyl-1H-pyrazol-5-yl)methyl]amino}imi-dazo[1,2-a]pyrazin-3-yl)benzamide] | 67 |
| 22.5 | CCCCCNc1nccn2c(-c3ccc(C(=O)NC4CC4)cc3)cnc12 [Example 7-1, N-cyclopropyl-4-[8-(pentylamino)imidazo[1,2-a]pyrazin-3-yl]benzamide] | – |
| – | COCCNc1nccn2c(-c3ccc(C(=O)NC4CC4)cc3)cnc12 [Example 7-2, N-cyclopropyl-4-{8-[(2-methoxyethyl)amino]imi-dazo[1,2-a]pyrazin-3-yl}benzamide] | 272 |
| – | COCCCNc1nccn2c(-c3ccc(C(=O)NC4CC4)cc3)cnc12 [Example 7-3, N-cyclopropyl-4-{8-[(3-methoxypropyl)amino]imi-dazo[1,2-a]pyrazin-3-yl}benzamide] | 95.8 |
| 341 | O=C(NC1CC1)c1ccc(-c2cnc3c(NCCN4CCOCC4)nccn23)cc1 [Example 7-4, N-cyclopropyl-4-(8-{[2-(morpholin-4-yl)ethyl]amino}imidazo[1,2-a]pyrazin-3-yl)benzamide] | – |
| – | O=C(NC1CC1)c1ccc(-c2cnc3c(NCCCN4CCOCC4)nccn23)cc1 [Example 7-5, N-cyclopropyl-4-(8-{[3-(morpholin-4-yl)propyl]amino}imi-dazo[1,2-a]pyrazin-3-yl)benzamide] | 328 |
| 1260 | CN(C)CCCNc1nccn2c(-c3ccc(C(=O)NC4CC4)cc3)cnc12 [Example 7-6, N-cyclopropyl-4-(8-{[3-(dimethylamino)propyl]ami-nono}imidazo[1,2-a]pyrazin-3-yl)benzamide] | – |
| 4050 | CN(C)CCNc1nccn2c(-c3ccc(C(=O)NC4CC4)cc3)cnc12 [Example 7-7, N-cyclopropyl-4-(8-{[2-(dimethylamino)ethyl]ami-no}imidazo[1,2-a]pyrazin-3-yl)benzamide] | – |
| 1950 | O=C(NC1CC1)c1ccc(-c2cnc3c(NCCN4CCCCC4)nccn23)cc1 [Example 7-8, N-cyclopropyl-4-(8-{[2-(piperidin-1-yl)ethyl]amino}imidazo[1,2-a]pyrazin-3-yl)benzamide] | – |
| – | O=C(NC1CC1)c1ccc(-c2cnc3c(NCCc4ccccc4)nccn23)cc1 [Example 7-9, N-cyclopropyl-4-{8-[(2-phenylethyl)amino]imi-dazo[1,2-a]pyrazin-3-yl}benzamide] | 47.7 |
| 115 | CCNc1nccn2c(-c3ccc(C(=O)NC4CC4)cc3)cnc12 [Example 7-10, N-cyclopropyl-4-[8-(ethylamino)imidazo[1,2-a]pyrazin-3-yl]benzamide] | – |
| – | COc1cc(CNc2nccn3c(-c4ccc(C(=O)NC5CC5)cc4)cnc23)cc(OC)c1OC [Example 7-13, N-cyclopropyl-4-{8-[(3,4,5-trimethoxybenzyl)amino]imi-dazo[1,2-a]pyrazin-3-yl}benzamide] | 429 |

| Compound | IC50 (read-out: Mps1 IC50) [nM] | IC50 (Mps1 IC50 [nM]) [nM] |
| --- | --- | --- |
| 2-chloro-N-cyclopropyl-4- {8-[(2- sulfamoylethyl)amino]imi- dazo[1,2-a]pyrazin-3- yl}benzamide [Example 7-67] | 250 | – |
| 4-{8-[(3-amino-3- oxopropyl)amino]imi- dazo[1,2-a]pyrazin-3-yl}-N- cyclopropylbenzamide [Example 7-25] | 1190 | – |
| CC(C)CNc1nccn2c(-c3ccc(C(=O)NC4CC4)c(Cl)c3)cnc12 [Example 6-1, 2-chloro-N-cyclopropyl-4-{8-[(2-methylpropyl)amino]imidazo[1,2-a]pyrazin-3-yl}benzamide] | 28 | – |
